Measured values as given in patent US7470660B2, “Treatment for dark adaptation” (The Regents of the University of California, priority 2001, dated 2008).
Entries after “also recorded” stand apart in the source; their conditions may differ.

What was measured:
[1] = system: apo E secretion from RPE cells; assay: Apo E secretion into basal media of RPE cells, western blot; assay type: cell-based, human; conditions: 36 hour incubation, both chambers, T3 10^-7 M, 22 (R) hydroxycholesterol 2.5x10^-6 M, cis retinoic acid 10^-7 M (10^-6 M elsewhere in the source), FIG. 6
Procedure: Primary cultures of normal human RPE cells from passages 5 to 10 were used for the experiments described. RPE cells were grown to confluence on laminin-coated 6 well Transwell tissue culture plates (Costar) with DMEM-H21 containing 10% fetal bovine serum, 2 mM glutamine, 50 μg/ml gentamicin and 2.5 mg/ml fungizone in the top and bottom chambers. […] Cells were grown for at least 1 week at confluence prior to drug treatment. Cells to be treated with drugs were incubated in serum free DMEM-H21 prior to drug addition. Drug treatments were in serum free DMEM-H21 with or without 10^−7 M thyroid hormone (T3), 2.5×10^−6 M 22 (R) hydroxycholesterol, or 10^−7 M cis retinoic acid in both chambers for 36 hours.
Total protein content was determined by a modified Lowry assay (Bio-Rad DC kit, Richmond, Calif.). Concentrated media (50 μg protein) was made to Start Buffer (0.025 M NaCl, 0.010 M tris (pH 8.5), 5 mM MnCl2) and adsorbed onto a 0.1 ml column containing Heparin-Sepharose CL-4B (Pharmacia, Uppsala, Sweden). Following a 2 ml wash in Start Buffer, the apo E containing bound fraction was eluted with 0.5M NaCl in Start buffer. The eluate was concentrated to 20 μl and buffer-exchanged to SalEN by centrifugal ultrafiltration (Biomax, 5k MCO, Millipore, Bedford, Mass.). Apo E was resolved by tris-tricine buffered SDS-PAGE (5-25% linear acrylamide gradient) and proteins electrophoetically transferred (55V, 18 h) to nitrocelluose membrane filters (Schleicher and Shuell, Keen, N.H.). Membranes were blocked with 10% bovine serum albumin at room temperature and probed with 1% goat anti-human apo E antiserum (18 h, 3° C.) prepared in 0.15% NaCl, 1 mM EDTA (pH 7.4), 0.1% Triton X-100 (SalET). The primary-bound anti-apo E antibodies were detected colorimetrically with horseradish peroxidase conjugated rabbit anti-goat Ig (H+L) and NiCl2-enhanced diaminobenzine staining. Stained bands were compared densitometrically from the digitized scanned image (NIH Image, v.1.62).
In order to distinguish apical (A) from basally (B) secreted apo E, RPE cells were cultured on laminin-coated Transwell plates. […] Total protein and apo E-specific protein concentrations were measured from media pooled and concentrated from 3-6 replicate wells. To assess apo E-specific secretion, apo E was purified from conditioned media by heparin-sepharose affinity chromatography and visualized by western blotting.
Since RPE cells express lxr α as well as thyroid hormone receptors (TRs) and retinoid-X-receptors (RXRs), the effect of 10^−7 M T3, 2.5×10^−6 M 22 (R) hydroxycholesterol (HC) (an lxr α agonist), or 10^−7 M cis retinoic acid (cRA) (an RXR agonist) on apo E secretion from RPE cells was tested. FIG. 6 illustrates the same experimental procedure as described above, but with basal and apical media both containing the following compounds for a 36 hour incubation: T3 (10^−7) M (T); 9 cis-RA (10^−6) M (RA); and 22 (R) hydroxycholesterol 2.5 (10^−6) M (HC).
Control (C) refers to no drug addition; T refers to 10^−7 M T3; RA refers to 10^−7 M cis retinoic acid; and HC refers to 2.5×10^−6 M 22(R) hydroxycholesterol. Basal media from 3 wells were combined, concentrated, and apo E was detected by western blotting.

cultured human RPE cells = assay: 14C-DHA labeled POS efflux into basal media after drug treatment; assay type: cell-based; conditions: 36 hours; 10^-7 M T3, 2.5x10^-5 M 22 (R) hydroxycholesterol or 10^-7 M cis retinoic acid; basal medium 1 mg/ml HDL; FIG. 10
Procedure: Bovine outer photoreceptor outer segments (POS) were labeled by incubating […] Coenzyme A, ATP, Mg^2+, and [^14C]-DHA. Cells grown on laminin coated Transwell plates were incubated with 12 μg/ml labeled POS in the apical chamber for 36 hours in medium containing 10% lipoprotein deficient fetal bovine serum. The basal medium was subjected to scintillation counting to determine the amount of [^14C] labeled lipids transported through the RPE cells.
This experiment determines whether compound administration can upregulate efflux of labeled POS residues to HDL, particularly by showing regulation of ^14C-DHA labeled POS efflux into basal media. An assay similar to that described in Example 4 is utilized; however, in this Example the cells were treated with T3, 9 cis-retinoic acid, and 22 (R) hydroxycholesterol in the concentrations described above for 36 hours. Total radioactivity (cpm) in the absence of HDL purification was determined by liquid scintillation counting of the basal media.
Specifically, cells were grown for 1 to 2 weeks at confluence on Transwell plates. ^14C-labeled POS […] were added to the apical medium. The apical and basal medium comprised either 10^−7 M T3, 2.5×10^−5 M 22 (R) hydroxycholesterol, or 10^−7 M cis retinoic acid. The basal medium contained 1 mg/ml HDL. After 36 hours the basal medium was collected and ^14C counts were determined by scintillation counting.

[2] = system: apo E secretion from RPE cells; assay: Apo E secretion from RPE cells, ELISA; assay type: cell-based, human; conditions: 36 hours, serum free DMEM; 10^-7 M T3; 2.5x10^-6 M 22(R) hydroxycholesterol; 10^-7 M cis retinoic acid; alone and in combination; FIG. 14
Procedure: RPE cells were treated for 36 hours on Transwell® plates with serum free DMEM +/− the drugs indicated. Control refers to no drug addition, T refers to 10^−7 M T3; HC refers to 2.5×10^−6 M 22(R) hydroxycholesterol; RA refers to 10^−7 M cis retinoic acid. N=6, * indicates p<0.05 (two-tailed t-test) compared to Control.
Media samples treated with 0.1% Tween-20 containing 1% bovine serum albumin were incubated (37° C., 4 h) in 96-well plates previously coated with apo E-affinity purified goat anti-apo E antibody. Apo E was detected using a secondary antibody-peroxidase conjugate and 3.3.5.5′-[…] (TMB) substrate. Optical density was measured at 450 nm. The assay was calibrated with purified plasma apo E. The dynamic range of the assay was 1-40 ng/ml apo E with a CV<5%.

[3] = system: Human retinal pigment epithelial cells; assay: 14C-labeled lipid efflux from RPE cells with HDL, apoA-I or apoA-I vesicles; assay type: cell-based; conditions: basal chamber, 36 hours, vs Control; FIG. 19
Procedure: The present inventors have created liposomes comprising apoA-I (artificial preβ1 HDL). Artificial discoidal apoA-I liposomes comprising purified human plasma apoAI, the saturated phospholipid dimyristoyl-L-α-phoshatidylcholine (DMPC) and cholesterol were constructed by the sodium cholate dialysis method. Liposomes were prepared using a molar ratio of approximately 1/5/95, apoA-I/free cholesterol/DMPC. Human retinal pigment epithelial cells grown on 6 well laminin coated Transwell® plates were fed ^14C-docosahexaenoic acid labeled photoreceptor outer segments in medium containing 5% lipoprotein free fetal bovine serum for 36 hours (apical chamber). Basal chambers contained serum free medium and either no human high density lipoprotein (HDL) (Control), 100 μg/ml of human HDL, pure human apoA-I, or human apoA-I vesicles. An aliquot of the basal medium was subjected to liquid scintillation counting. Wells were treated in triplicate. HDL stimulated ^14C-labeled lipid efflux by about 60%.

Compound | basal Apo E expression/secretion (Western blot of basal media) [1] | transport of 14C-labeled POS to the basal medium (cultured human RPE cells) | apo E secretion (ELISA) [2] | basal Apo E expression/secretion (Western blot of basal media) ([1]; listed as HC) | basal Apo E expression/secretion (Western blot of basal media) ([1]; listed as 9 cis-RA) | basal Apo E expression/secretion (Western blot of basal media) ([1]; listed as RA) | stimulation of 14C-labeled lipid efflux (in words) [3]
N[C@@H](Cc1cc(I)c(Oc2ccc(O)c(I)c2)c(I)c1)C(=O)O [T3, 3,5,3′-L-triiodothyronine] | increased basal expression of Apo E; also recorded: stimulate basal apo E secretion | increased transport of ^14C-labeled POS to the basal medium | upregulate apo E secretion | – | – | – | –
CC(C)CC[C@@H](O)[C@@H](C)[C@H]1CC[C@H]2[C@@H]3CC=C4C[C@@H](O)CC[C@]4(C)[C@H]3CC[C@]12C [22 (R) hydroxycholesterol] | increased basal expression of Apo E | increased transport of ^14C-labeled POS to the basal medium | upregulate apo E secretion | stimulate basal apo E secretion | – | – | –
CC1=C(/C=C/C(C)=C\C=C\C(C)=C\C(=O)O)C(C)(C)CCC1 [cis retinoic acid, 9 cis-retinoic acid] | – | increased transport of ^14C-labeled POS to the basal medium | upregulate apo E secretion | – | increased basal expression of Apo E | stimulate basal apo E secretion | –
ApoA-I: pure human apoA-I, purified from human plasma; major lipoprotein component of HDL | – | – | – | – | – | – | appeared to stimulate
